“And” between values parts separate entries of the source, which are not always exact repeats. Equal entries are not always repeated. Where two headings read alike, the source gives them in different places.
Key:
[1] = system: benzodiazepine binding site of the GABA-A receptor; experiment: [H3]flunitrazepam displacement, brain membranes
[2] = system: picrotoxin binding site of the GABA-A receptor; settings: for IC50: read-out: IC50 of S^35-TBPS displacement
[3] = molecular target: T1, α1β2γ2 recombinant GABA-A receptors (Homo sapiens, UniProt P14867+P18507+P47870); experiment: cell-based
T1 construct: expressed in transfected cells; host or cells: Xenopus laevis oocytes injected with cRNA

[4] = system: GABA binding site of the GABA-A receptor; experiment: [H3]muscimol displacement, brain membranes; settings: 100 μM
[5] = molecular target: picrotoxin binding site of the GABA-A receptor; settings: published compounds; read-out: Displacement of S^35-TBPS (IC50); cited from earlier work
[6] = system: GABA currents in cultured neurons; settings: cited from earlier work
[7] = Solubility noted in the electrophysiological test
mice = settings: attacks induced by pentylenetetrazole and picrotoxin; cited from earlier work
[8] = 200 μM, α1β2γ2, read-out: % of stimulation of the GABA currents
[9] = α1β2γ2, read-out: % of stimulation of the GABA currents

T1 sequence (P14867 28-456): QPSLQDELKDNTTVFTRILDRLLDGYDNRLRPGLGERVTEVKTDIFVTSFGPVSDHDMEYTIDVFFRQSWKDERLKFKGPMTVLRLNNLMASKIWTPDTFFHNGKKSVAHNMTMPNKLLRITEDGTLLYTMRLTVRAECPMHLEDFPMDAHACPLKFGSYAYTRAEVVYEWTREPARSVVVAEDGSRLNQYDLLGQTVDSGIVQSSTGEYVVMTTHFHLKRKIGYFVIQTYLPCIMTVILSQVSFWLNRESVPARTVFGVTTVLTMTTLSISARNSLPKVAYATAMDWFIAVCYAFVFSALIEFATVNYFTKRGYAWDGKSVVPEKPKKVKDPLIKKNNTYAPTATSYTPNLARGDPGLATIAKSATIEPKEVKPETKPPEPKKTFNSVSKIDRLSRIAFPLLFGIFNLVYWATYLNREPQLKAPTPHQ
T1 sequence (P47870 25-512 limits assumed): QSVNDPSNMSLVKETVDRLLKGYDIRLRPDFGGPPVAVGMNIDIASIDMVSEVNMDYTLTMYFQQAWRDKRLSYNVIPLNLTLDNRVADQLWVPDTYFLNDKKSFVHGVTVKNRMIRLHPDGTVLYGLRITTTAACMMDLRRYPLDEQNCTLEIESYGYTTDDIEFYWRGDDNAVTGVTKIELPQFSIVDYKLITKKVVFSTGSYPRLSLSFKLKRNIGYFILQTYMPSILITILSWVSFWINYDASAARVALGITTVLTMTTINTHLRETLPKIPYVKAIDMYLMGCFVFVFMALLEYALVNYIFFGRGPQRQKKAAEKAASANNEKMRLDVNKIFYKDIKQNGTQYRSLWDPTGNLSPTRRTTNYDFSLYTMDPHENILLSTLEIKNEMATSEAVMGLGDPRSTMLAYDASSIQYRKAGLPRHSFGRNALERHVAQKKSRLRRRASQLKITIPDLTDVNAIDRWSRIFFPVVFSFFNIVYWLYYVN
T1 sequence (P18507 40-475): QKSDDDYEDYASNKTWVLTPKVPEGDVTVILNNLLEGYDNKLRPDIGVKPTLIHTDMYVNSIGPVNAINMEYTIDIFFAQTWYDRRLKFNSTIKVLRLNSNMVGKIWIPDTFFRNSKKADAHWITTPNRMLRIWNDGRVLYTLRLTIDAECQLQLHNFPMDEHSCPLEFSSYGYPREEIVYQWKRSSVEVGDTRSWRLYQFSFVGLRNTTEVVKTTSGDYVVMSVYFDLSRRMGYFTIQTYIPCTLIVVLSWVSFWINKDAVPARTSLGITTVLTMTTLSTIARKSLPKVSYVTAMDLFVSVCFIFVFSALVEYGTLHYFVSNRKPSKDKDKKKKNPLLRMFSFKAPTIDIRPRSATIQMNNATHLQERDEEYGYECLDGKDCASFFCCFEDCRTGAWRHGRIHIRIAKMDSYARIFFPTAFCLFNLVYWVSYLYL

C[C@@H]1C(=O)OC[C@H]1N(Cc1ccccc1)C(=O)OCc1ccccc1 (relative stereo) [Compound 42, trans-3-(N-benzyl-N-benzyloxycarboyl)amino-2-(C-methyl)-1,4-butyrolactone]
Inhibition of the radiolabeled ligands % Flu ([1]; 100 μM): 0% | Inhibition of the radiolabeled ligands % TBPS ([2]; 10 μM): 15% | Inhibition of the radiolabeled ligands % TBPS ([2]; 100 μM): 52% | % of stimulation of the GABA currents ([3]; 200 μM, α1β2γ2): +3 ± 10%

CCCC1(CCC)C(=O)OCC1NC(=O)OCc1ccccc1 (centres unmarked) [Compound 30, 3-Benzyloxycarbonylamino-2,2-(C-dipropyl)-1,4-butyrolactone]
Inhibition of the radiolabeled ligands % Flu ([1]; 100 μM): 0% | Inhibition of the radiolabeled ligands % TBPS ([2]; 10 μM): 0 10 μM) % | Inhibition of the radiolabeled ligands % TBPS ([2]; 100 μM): 55% | Inhibition of the radiolabeled ligands % Muscimol [4]: 0% | activation at 1 µM ([3]; 1 μM, α1β2γ2, read-out: % of stimulation of the GABA currents): 15% | activation at 10 µM ([3]; 10 μM, α1β2γ2, read-out: % of stimulation of the GABA currents): 140% | activation at 50 µM ([3]; 50 μM, α1β2γ2, read-out: % of stimulation of the GABA currents): 250% | activation at 200 µM [3, 8]: 51%

CCCC1(CCC)C(=O)OCC1NS(=O)(=O)c1ccc(OC)cc1 (centres unmarked) [Compound 33, 3-(p-Methoxyphenylsulfonamido)-2,2-di(C-propyl)-1,4-butyrolactone]
stimulation of the binding of flunitrazepam (printed in the % Flu inhibition column) ([1]; 100 μM): weak | IC50 [2]: 50 µM | Inhibition of the radiolabeled ligands % Muscimol [4]: 0%

CC1(CC(F)(F)F)CCOC1=O (centres unmarked) [Compound 61]
IC50 [5]: 3100 µM | % of stimulation of GABA (concentration) ([6]; 1 μM): +146 ± 12%

CCCC1(CCC)C(=O)OCC1NS(=O)(=O)c1ccc(C(F)(F)F)cc1 (centres unmarked) [Compound 32, 3-(p-Trifluoromethylphenylsulfonamido)-2,2-di(C-propyl)-1,4-butyrolactone]
stimulation of the binding of flunitrazepam (printed in the % Flu inhibition column) ([1]; 100 μM): 15-20% | Inhibition of the radiolabeled ligands % TBPS ([2]; 10 μM, anterior part of the brain): 100% | Inhibition of TBPS in the cerebellum ([2]; cerebellum): incomplete | Inhibition of the radiolabeled ligands % Muscimol [4]: 0%

C[C@@H]1C(=O)OC[C@H]1NC(=O)OCc1ccccc1 (relative stereo) [Compound 28, trans-3-benzyloxycarbonylamino-2-(C-methyl)-1,4-butyrolactone]
Inhibition of the radiolabeled ligands % Flu ([1]; 100 μM): 0% | Inhibition of the radiolabeled ligands % TBPS ([2]; 100 μM): 0% | Inhibition of the radiolabeled ligands % Muscimol [4]: 0% | stimulating activities for the GABA current (in words) [3]: low stimulating activities | % of stimulation of the GABA currents ([3]; 50 μM, α1β2γ2): −7 ± 7%

C[C@@H]1C(=O)OC[C@@H]1N(Cc1ccccc1)C(=O)OCc1ccccc1 (relative stereo) [Compound 43, cis-3-(N-benzyl-N-benzyloxycarboyl)amino-2-(C-methyl)-1,4-butyrolactone]
Inhibition of the radiolabeled ligands % Flu ([1]; 10 μM): 20% | Inhibition of the radiolabeled ligands % Flu ([1]; 100 μM): 30% | Inhibition of the radiolabeled ligands % TBPS ([2]; 10 μM): 35% | Inhibition of the radiolabeled ligands % TBPS ([2]; 100 μM): 60% | Inhibition of the radiolabeled ligands % Muscimol [4]: 0% | % of stimulation of the GABA currents ([3]; 200 μM, α1β2γ2): −3 ± 3%

CCCC1(CCC)C(=O)OCC1NC(=O)c1ccccc1 (centres unmarked) [Compound 34]
stimulation of the binding of flunitrazepam (printed in the % Flu inhibition column) ([1]; 100 μM): weak stimulation and weak | Inhibition of the radiolabeled ligands % Muscimol [4]: 0% | activation at 2 µM [3, 9]: 17% | activation at 20 µM [3, 9]: 207% | activation at 200 µM [3, 8]: 420%

CCCC1(CCC)C(=O)OCC1NC(=O)OCC (centres unmarked) [Compound 36, 3-Ethyloxycarbonylamino-2,2-di(C-propyl)-1,4-butyrolactone]
Inhibition of the radiolabeled ligands % Flu ([1]; 100 μM): 0% | IC50 [2]: > 100 µM | Inhibition of the radiolabeled ligands % Muscimol [4]: 0%

C[C@H]1C(=O)OC[C@H]1NC(=O)OCc1ccccc1 (relative stereo) [Compound 27, cis-3-benzyloxycarbonylamino-2-(C-methyl)-1,4-butyrolactone]
Inhibition of the radiolabeled ligands % Flu ([1]; 100 μM): 0% | Inhibition of the radiolabeled ligands % TBPS ([2]; 100 μM): 0% | stimulation of muscimol binding (printed in the % Muscimol inhibition column) [4]: 10% stimulation | % of stimulation of the GABA currents ([3]; 50 μM, α1β2γ2): −1 ± 2%

3-Benzylamino-3,3-di(C-allyl)-1,4-butyrolactone [Compound 16]
Inhibition of the radiolabeled ligands % TBPS ([2]; 100 μM): 62% | % of stimulation of the GABA currents ([3]; 200 μM, α1β2γ2): +115 ± 30%

CCC1(CC)CCNC1=O [Compound 58]
IC50 [5]: 5800 µM | % of stimulation of GABA (concentration) ([6]; 1 μM): +137 ± 6%

CCCC1(CCC)C(=O)OCC1NS(=O)(=O)c1ccc(Cl)cc1 (centres unmarked) [Compound 31, 3-(p-Chlorophenylsulfonamido)-2,2-di(C-propyl)-1,4-butyrolactone]
IC50 [2]: 10 µM and ~10 µM | Inhibition of the radiolabeled ligands % Muscimol [4]: 0% | activation at 5 µM ([3]; 5 μM, α1β2γ2, read-out: % of stimulation of the GABA currents): 23% | insoluble at (concentration) ([7]; in the GABA current test): insoluble at higher concentrations | solubility ([7]; pH 7.4): > 5 µM

CCC1(C)COC(=O)C1 (centres unmarked) [Compound 54]
convulsant or anticonvulsant effect in mice (mice): convulsant effects

CC1(CC(F)(F)F)CCSC1=O (centres unmarked) [Compound 60]
IC50 [5]: 520 µM | % of stimulation of GABA (concentration) ([6]; 300 μM): +160 ± 17%

CCC1(C)CCOC1=O (centres unmarked) [Compound 55]
IC50 [5]: 2300 µM | % of stimulation of GABA (concentration) ([6]; 300 μM): +101 ± 8% | convulsant or anticonvulsant effect in mice (mice): anticonvulsant properties

O=C1CC(NC(=O)OCc2ccccc2)CO1 (centres unmarked) [Compound 26, 3-Benzyloxycarbonylamino-1,4-butyrolactone]
Inhibition of the radiolabeled ligands % Flu ([1]; 100 μM): 0% | Inhibition of the radiolabeled ligands % TBPS ([2]; 100 μM): 0% | Inhibition of the radiolabeled ligands % Muscimol [4]: 0% | stimulating activities for the GABA current (in words) [3]: low stimulating activities | % of stimulation of the GABA currents ([3]; 0.1 μM, α1β2γ2): +47 ± 90% | % of stimulation of the GABA currents ([3]; 200 μM, α1β2γ2): +47 ± 9%

C=CCOC(=O)NC1COC(=O)C1(CCC)CCC (centres unmarked) [Compound 35, 3-Allyloxycarbonylamino-2,2-di(C-propyl)-1,4-butyrolactone]
stimulation of the binding of flunitrazepam (printed in the % Flu inhibition column) ([1]; 100 μM): weak stimulation and weak | Inhibition of the radiolabeled ligands % Muscimol [4]: 0% | times more powerful than α-EMTBL in stimulating the currents produced by GABA [3]: up to 100 times | activation at 2 µM [3, 9]: 26% | activation at 20 µM [3, 9]: 229% | activation at 200 µM [3, 8]: 765%
